Data taken from patent US7145058B2, “Efficient method of preventing growth of microbial genetic transformant after transformation” (Council of Scientific and Industrial Research, priority 2002, dated 2006).

How the values were obtained:
[1] = tested on: A. tumefaciens, supervirulent strain EHA101 (pEHA101/pGT100); conditions: 100 μg/ml, singly or in combination, 52 days in regeneration and elongation media; cited from earlier work
guar tissues = conditions: cited from earlier work
[2] = tested on: Sitka spruce somatic embryos; conditions: cited from earlier work
Agrobacterium = conditions: carbenicillin, cefotaxime, ticarcillin for Brassica, Solanum, Rubus respectively; cited from earlier work
[3] = tested on: cultured tissues of Vitis; conditions: cited from earlier work
[4] = tested on: Agrobacterium tumefaciens; test: Growth curve of Agrobacterium tumefaciens in liquid Yeast Mannitol Broth, optical density at 600 nm; assay type: cell-based; conditions: different concentrations of D-catechin of Acacia species
Method: The growth of bacteria is measured spectrophotometrically. The variation of growth is measured for up to 48 hours at an interval of 6 hours each.
Two strains of Agrobacterium tumefaciens viz. EHA105 (mild) and GV2260 (virulent) harbouring the antibiotic resistance genes for kanamycin or hygromycin and the reporter gus gene were inoculated from mother cultures of respective strains into 10–30 ml liquid modified Yeast Mannitol Broth with kanamycin or hygromycin. The cultures were incubated for 12–16 hr at 25–30° C. and 150–200 rpm in dark and harvested at 0.6–0.8 optical density at 600 nm for 1×10^9 cells/ml during log phase of bacterial growth. […] Measurement of optical density at 600 nm at regular 6 hr intervals for 0–48 hr and the mean of three readings were plotted for development of the growth curve.
Crude mixture of catechins as well as caffeine at concentrations of 2–600 μg/ml were added to fresh cultures of Agrobacterium tumefaciens and maintained at 25–30° C. in dark at 150–200 rpm for 48 hr. The optical density was again measured at regular interval of 6 hr each for 0–48 hr for the plotting of the mean of the three readings in a linear graph in order to determine the effect of the crude mixture of catechins as well as caffeine at concentrations of 2–600 μg/ml on fresh cultures of Agrobacterium tumefaciens.

SMILES	elimination of A. tumefaciens from the explants [1]	phytotoxicity to guar explants (guar tissues)	elimination of residual Agrobacterium (Agrobacterium)	also measured
CO/N=C(\C(=O)N[C@@H]1C(=O)N2C(C(=O)O)=C(COC(C)=O)CS[C@H]12)c1csc(N)n1 [cefotaxime]	did not eliminate	phytotoxic	none of the antibiotics tested succeeded in eliminating Agrobacterium	effect on overall tissue growth [2]: no effect
CC1(C)S[C@@H]2[C@H](NC(=O)C(C(=O)O)c3ccccc3)C(=O)N2[C@H]1C(=O)O (some centres unmarked) [carbenicillin]	did not eliminate	phytotoxic	none of the antibiotics tested succeeded in eliminating Agrobacterium	effect on plant regeneration [3]: inhibitory effects on plant regeneration; development of mature somatic embryos [2]: prevented the development of mature somatic embryos; reduction of early stage embryos [2]: > 90%; reduction of tissue growth [2]: 50%
Oc1cc(O)c2c(c1)OC(c1ccc(O)c(O)c1)C(O)C2 [D-catechin]	–	–	–	growth of Agrobacterium tumefaciens [4]: promote and not inhibit the growth
CC1(C)S[C@@H]2[C@H](NC(=O)[C@H](C(=O)O)c3ccsc3)C(=O)N2[C@H]1C(=O)O [ticaracillin, ticarcillin]	–	–	none of the antibiotics tested succeeded in eliminating Agrobacterium	–
CO[C@@]1(NC(=O)Cc2cccs2)C(=O)N2C(C(=O)O)=C(COC(N)=O)CS[C@@H]21 [cefoxitin]	did not eliminate	–	–	–
